This passage reports MIC results from DBAASP.

Each structure is given as a SMILES string. Values after ≈ are worked out from the molar mass of the structure shown. Some results are limits rather than exact numbers.

As a reminder, the MIC is the least concentration at which growth counts as inhibited. Higher therefore signals a need for much substance.

Test systems include Escherichia coli MG1655; Vibrio cholerae; Bacillus subtilis 168; Escherichia coli; Micrococcus luteus; Vibrio alginolyticus; Vibrio campbellii; Vibrio harveyi; Vibrio parahaemolyticus; Escherichia coli BW25113; Escherichia coli J2210; Escherichia coli JJ2489; Escherichia coli JW0013; Escherichia coli MC1041.
Assay in all cases: ≥ marks a high value that may be exact or a test limit, other limits are often not marked, values filed in µg/mL are converted to µM
Experiment [1] has as its system Bacillus subtilis MTCC 14416.
For experiment [2], the system named is Enterococcus faecalis ATCC 29212.
Experiment [3] has as its system Pseudomonas aeruginosa ATCC 27853.
Experiment [4] relates to Staphylococcus aureus ATCC 43300.
In experiment [5] the test system is Staphylococcus aureus MTCC 9542.
The test system of experiment [6] is Candida albicans ATCC 10231.
For experiment [7], the system named is Candida glabrata ATCC 2001.
The subject of experiment [8] is Candida tropicalis ATCC 13803.
In experiment [9] the test system is Escherichia coli ATCC 25922.
Experiment [10] has as its system Klebsiella pneumoniae ATCC 13883.
In experiment [11] the test system is Pseudomonas aeruginosa PAO1.
Experiment [12] has as its system Staphylococcus aureus MU50.
The test system of experiment [13] is Staphylococcus aureus Newman.
In experiment [14] the test system is Staphylococcus aureus UAMS-1.
The subject of experiment [15] is Staphylococcus aureus USA 200.
The test system of experiment [16] is Staphylococcus aureus USA 300.
In experiment [17] the test system is Staphylococcus aureus USA 400.
Experiment [18] concerns Staphylococcus epidermidis 1457.
The test system of experiment [19] is Staphylococcus epidermidis.
Experiment [20] relates to Escherichia coli JW0368 ΔsbmA.
The test system of experiment [21] is Escherichia coli JW2778 ΔygdD.
The test system of experiment [22] is Salmonella enterica subsp. enterica serovar Enteritidis MH91989.
Experiment [23] has as its system Salmonella typhimurium SL1344.
The test system of experiment [24] is Escherichia coli CMCC 44102.
Experiment [25] relates to Staphylococcus aureus CMCC 26003.
Experiment [26] has as its system Staphylococcus epidermidis ATCC 12228.
In experiment [27] the test system is Escherichia coli KCTC 2223.
Experiment [28] relates to Micrococcus luteus ATCC 10240.
Experiment [29] deals with Salmonella typhimurium KCTC 2370.
Experiment [30] deals with Staphylococcus aureus ATCC 15752.

Take `CC[C@H](C)[C@@H]1NC(=O)[C@H](CCCCN)NC(=O)[C@@H](NC(=O)[C@H](CC(C)C)NC(=O)[C@@H](NC(=O)[C@H](CCC(N)=O)NC(=O)[C@@H]2CCCN2C(=O)[C@H](CC(C)C)NC(=O)[C@H](Cc2ccccc2)NC(=O)[C@H](CC(N)=O)NC(=O)[C@H](C)NC(=O)[C@H](C)NC(=O)[C@@H](N)CC(C)C)[C@@H](C)CC)CSSC[C@@H](C(N)=O)NC(=O)[C@H](CCCCN)NC(=O)[C@H](CCCN=C(N)N)NC(=O)[C@H](C)NC1=O` [LAANFLPQILCKIARKC]: the MIC in [1] was 26.3 µM (≈ 49.9 µg/mL); in experiment [2] it was 52.6 µM (≈ 99.8 µg/mL); with Escherichia coli MG1655 it was 6.57 µM (≈ 12.5 µg/mL); in [3], over 52.6 µM; in [4] it was 26.3 µM (≈ 49.9 µg/mL); in experiment [5], 3.23 µM (≈ 6.14 µg/mL). For the same compound, the MIC against Vibrio cholerae was determined as 6.57 µM (≈ 12.5 µg/mL).
Take `CC[C@H](C)[C@H](NC(=O)CNC(=O)[C@H](CO)NC(=O)[C@@H](NC(=O)[C@H](CC(C)C)NC(=O)[C@H](CCCN=C(N)N)NC(=O)CNC(=O)[C@@H](NC(=O)[C@@H](NC(=O)[C@@H]1CCCN1C(=O)[C@H](CC(C)C)NC(=O)[C@@H](N)Cc1ccccc1)[C@@H](C)CC)C(C)C)[C@@H](C)CC)C(=O)N[C@@H](CC(C)C)C(N)=O` [FLPIVGRLISGIL]: the MIC in the experiment on Bacillus subtilis 168 was at least 35.4 µM; in experiment [6], 50 µM (≈ 69.8 µg/mL); in experiment [7], at least 50 µM; in [8] it was 8.8 µM (≈ 12.3 µg/mL); in [9], over 50 µM; in experiment [10], at least 50 µM. Further, the MIC in experiment [11] is over 50 µM; in [12], 12.5 µM (≈ 17.5 µg/mL); in [13], 12.5 µM (≈ 17.5 µg/mL); in [14], 25 µM (≈ 34.9 µg/mL); in experiment [15], 25 µM (≈ 34.9 µg/mL); in experiment [16], 12.5 µM (≈ 17.5 µg/mL). Also, the minimal inhibitory concentration (MIC) in experiment [17] and in experiment [18] was 12.5 µM (≈ 17.5 µg/mL) in each case.
In the case of `CC[C@H](C)[C@H](NC(=O)[C@H](Cc1ccccc1)NC(=O)[C@H](Cc1ccc(O)cc1)NC(=O)[C@@H]1CCCN1C(=O)[C@H](CCCN=C(N)N)NC(=O)[C@@H](NC(=O)[C@H](CO)NC(=O)[C@H](Cc1ccc(O)cc1)NC(=O)[C@H](CO)NC(=O)[C@H](CS)NC(=O)[C@H](Cc1ccc(O)cc1)NC(C)=O)[C@@H](C)O)C(=O)N[C@@H](CCCN=C(N)N)C(=O)N[C@@H](Cc1c[nH]c2ccccc12)C(=O)N[C@@H](CCC(N)=O)C(=O)N[C@@H](CC(C)C)C(=O)N[C@@H](CCCCN)C(=O)N[C@@H](Cc1ccccc1)C(=O)N[C@@H](CCCCN)C(=O)N[C@H](C(=O)N[C@@H](CCCCN)C(=O)N[C@H](C(=O)N[C@@H](Cc1c[nH]c2ccccc12)C(=O)N[C@@H](CS)C(=O)N1CCC[C@H]1C(N)=O)[C@@H](C)CC)[C@@H](C)O` [YCSYSTRPYFIRWQLKFKTKIWCP], the MIC against Escherichia coli was over 64 µM; in the experiment with Micrococcus luteus, at least 64 µM; in [19], at least 64 µM; with Vibrio alginolyticus, at least 64 µM; with Vibrio campbellii, at least 64 µM; in the experiment on Vibrio harveyi, at least 64 µM. Moreover, the MIC in the experiment with Vibrio parahaemolyticus is at least 64 µM.
`CC[C@H](C)[C@H](NC(=O)[C@H](Cc1ccc(O)cc1)NC(=O)[C@@H](NC(=O)[C@@H]1CCCN1C(=O)[C@H](CCCCN)NC(=O)[C@H](CC(N)=O)NC(=O)[C@H](CC(N)=O)NC(=O)CN)C(C)C)C(=O)N1CCC[C@H]1C(=O)N[C@@H](CCC(N)=O)C(=O)N1CCC[C@H]1C(=O)N[C@@H](CCCN=C(N)N)C(=O)N1CCC[C@H]1C(=O)N1CCC[C@H]1C(=O)N[C@@H](CCCN=C(N)N)C(=O)N1CCC[C@H]1C(=O)N[C@@H](CCCN=C(N)N)C(=O)N[C@@H](CC(C)C)C(=O)O` [GNNKPVYIPQPRPPRPRL]: the MIC against Escherichia coli BW25113 amounted to 0.048 µM (≈ 0.101 µg/mL); against Escherichia coli J2210, 0.133 µM (≈ 0.279 µg/mL); with Escherichia coli JJ2489, 0.067 µM (≈ 0.141 µg/mL); with Escherichia coli JW0013, 0.048 µM (≈ 0.101 µg/mL); in experiment [20], 0.384 µM (≈ 0.806 µg/mL); in experiment [21], 0.096 µM (≈ 0.202 µg/mL). The MIC against Escherichia coli MC1041 is 0.096 µM (≈ 0.202 µg/mL); in [22], 0.067 µM (≈ 0.141 µg/mL); in experiment [23], 0.126 µM (≈ 0.265 µg/mL).
Take `CC[C@H](C)[C@H](NC(=O)[C@H](CCCN=C(N)N)NC(=O)[C@H](CCCN=C(N)N)NC(=O)[C@H](CC(C)C)NC(=O)[C@H](Cc1ccccc1)NC(=O)[C@@H]1CCCN1C(=O)[C@H](CCCN=C(N)N)NC(=O)[C@H](CCSC)NC(=O)[C@@H](NC(=O)[C@H](CCCCN)NC(=O)[C@H](CCCCN)NC(=O)[C@H](CS)NC(=O)[C@@H](NC(=O)CNC(=O)[C@H](CCCN=C(N)N)NC(=O)[C@H](CC(C)C)NC(=O)[C@@H](NC(=O)[C@@H](N)CCCCN)[C@@H](C)CC)C(C)C)[C@@H](C)CC)C(=O)N[C@@H](CO)C(=O)N[C@@H](CCCCN)C(=O)N[C@@H](CC(=O)O)C(=O)N[C@H](C(=O)N[C@@H](CC(C)C)C(=O)N[C@H](C(=O)NCC(=O)N[C@@H](CCCCN)C(=O)N[C@@H](CCCCN)C(N)=O)[C@@H](C)O)[C@@H](C)CC` [KILRGVCKKIMRPFLRRISKDILTGKK]: the MIC in [24] worked out at 4 µM (≈ 12.8 µg/mL); in [3], 16 µM (≈ 51.2 µg/mL); in experiment [25], 4 µM (≈ 12.8 µg/mL); in [26], 4 µM (≈ 12.8 µg/mL).
On to `CC(C)C[C@H](NC(=O)[C@H](CCCCN)NC(=O)[C@H](CCC(N)=O)NC(=O)[C@H](CCCCN)NC(=O)[C@H](CC(C)C)NC(=O)[C@H](CC(C)C)NC(=O)[C@H](CCC(N)=O)NC(=O)[C@H](CC(C)C)NC(=O)[C@H](CC(C)C)NC(=O)[C@@H]1CCCN1C(=O)[C@H](CCCN=C(N)N)NC(=O)[C@H](CC(C)C)NC(=O)[C@H](CC(C)C)NC(=O)[C@H](CCCN=C(N)N)NC(=O)CNC(=O)CNC(=O)CNC(=O)[C@@H]1CCCN1C(=O)[C@@H]1CCCN1C(=O)CNC(=O)[C@H](CCCN=C(N)N)NC(=O)[C@@H](NC(=O)[C@H](CCCCN)NC(=O)[C@@H](N)CCCN=C(N)N)C(C)C)C(=O)N[C@@H](CCCN=C(N)N)C(=O)O` [RKVRGPPGGGRLLRPLLQLLKQKLR], for which the MIC in [27] was 2 µM (≈ 5.7 µg/mL); in experiment [28], 0.5 µM (≈ 1.43 µg/mL); in experiment [29], 4 µM (≈ 11.4 µg/mL); in experiment [30], 2 µM (≈ 5.7 µg/mL).
